# Like-named read-outs stand apart in the source and are kept apart here.
# What was measured:
# [1] = tested on: zfGPCR (dual zfGLP-1R/GCGR); test: Competitive binding, displacement of 125I-exendin(9–39) from recombinant zfGPCR expressed in COS-7 cells; design: species or system zebrafish (Danio rerio); settings: 125I-exendin(9–39) tracer, intact COS-7 cells, 16–18 h at 4°C, triplicate wells, NSB with 1 μM peptide, n = 4 zfGLP-1, n = 3 hGLP-1, zf glucagon, exendin-4, n = 5 exendin(9–39). 95% CI: zfGLP-1 225–371, hGLP-1 121–262, zf glucagon 78.5–144, h glucagon 33.6–134, exendin-4 0.84–1.17, exendin(9–39) 3.42–5.17
# Experimental: (§1) Competitive binding experiments were performed with the recombinant zfGPCR expressed in COS-7 cells, as described previously. Transient transfections of pcDNA3 vector containing recombinant zfGPCR into COS-7 cells were performed as described below for the stimulation of intracellular cAMP. Cells were grown in 100-mm plates to confluence and 24 hr after transfection they were trypsinized and transferred to 24 well plates (Biocore, Becton Dickinson). 24–48 hr later each peptide (pM to μM) was added in triplicate wells followed by the addition of an aliquot (100,000 cpm/well) of either ^125I-hGLP-1(7–36)amide or ^125I-exendin(9–39) (each radioactive peptide tracer at […] receptor grade, NEN Life Science Products, Boston, MA). Peptides, radioiodinated ^125I-tracer and cells were incubated for 16–18 h at 4°C. After incubation cells were washed twice with ice-cold PBS, lysed with 1N NaOH and radioactivity measured in a γ-counter. A single dose-displacement curve for each peptide was obtained in a single 24-well plate.
# Non-specific binding was determined in the presence of 1μM of each peptide.
# (§2) IC50 values represent an average of n experiments as described above and were calculated by the Prism 4 software. Displacement curves from the competitive binding experiments were plotted by Origin 9 software (OriginLab). Error bars are shown for data points in the displacement curves obtained in two or more rounds of transfections.
# (§3) Results from the functional experiments with recombinant zfGPCR transiently expressed in COS-7 cells were analyzed by the Prism 4 software using a four-parameter logistic sigmoidal curve fit model. Data points represent mean +/- SEM.
# They are shown together with the 95% confidence intervals (CIs). The F-test was used to compare the IC50 value for zfGLP-1 with the IC50 values for the other tested peptides obtained in the competitive binding experiments shown when ^125I-hGLP-1(7–36)amide or ^125I-exendin (9–39) were used as tracers. Following conditions were used for the curve fitting: (i) in the normalization step y = 0%was set to be 0, y = 100% was set to be 100; (ii) constrained curve-fit parameters were set to be equal to 0.00 on the bottom, 100 on top; (iii) IC50 was not constrained; (iv) the selected option in the non-linear regression curve fit was intended on finding out whether the best-fit of a selected parameter (IC50) differs between two sets.
# [2] = tested on: zfGPCR (dual zfGLP-1R/GCGR); test: Intracellular cAMP in COS-7 cells expressing recombinant zfGPCR; type: cell-based, zebrafish (Danio rerio); settings: for EC50: 20 min at 37°C, pH 7.4, 1 mM 1-methyl-3-isobutylxanthine, enzyme immunoassay, n = 9 zfGLP-1, n = 5 hGLP-1, zf glucagon, h glucagon, n = 3 exendin-4, n = 6 zfGLP-2. 95% CI: zfGLP-1 0.24–0.80, hGLP-1 0.65–1.63, zf glucagon 0.20–2.9, h glucagon 0.18–1.63, exendin-4 0.07–0.46, zfGLP-2 16.8–72.6
# Experimental: The ability of different peptides to stimulate the increase in intracellular cAMP levels following their binding to the recombinant zfGPCR transiently expressed in COS-7 cells was measured using methods that we developed for non-mammalian G-protein coupled receptors. In brief, COS-7 cells were grown to confluence in 100-mm plates at 37°C and transfected with the pcDNA3 vector containing the recombinant zfGPCR using the TransFast transfection reagent (Promega, Madison, WI) at a […] of plasmid DNA (25 ug) to transfection reagent (75 μL). After 24 h cells were trypsynized and transferred to 24-well plates (Biocore, Becton-Dickinson, Franklin Lakes, NJ). Peptides (pM-μM) were added 24–48 h later. Cells were equilibrated prior to the addition of peptides with the assay buffer (DMEM, 0.5% BSA, 20mM HEPES, 1mM 1-methyl-3-isobutylxanthine, 0.1mM phenylmethylsulfonyl fluoride, pH 7.4) for 20 min at 37°C. Each peptide concentration was added in triplicate wells for 20 min at 37°C. cAMP dose-response curves for each tested peptide were obtained in a single 24-well plate. In all experiments, forskolin (100 nM) (Sigma-Aldrich, St.Louis, MO) was added as a positive control, also in triplicate wells, in the same 24-well plate as the tested peptide. After incubation, the media was removed and cells were lysed by the addition of cold ethanol (1 mL per well). Cell debris was pelleted by centrifugation (10,000 g) for 10-min, and supernatants were dried using a vacuum concentrator. Samples were resuspended in an assay buffer provided by the manufacturer and cAMP levels were quantified by the enzyme immunoassay kit (Cayman Chemicals, Ann Arbor, MI) according to the manufacturer’s instructions. The basal concentration of cAMP (in the absence of peptides) was taken as 1.00, and was in the range of 9–16 pmol/well. Results are presented as a fold-increase over basal.
# Results were plotted by the Origin 9 software (OriginLab), and EC50 values were calculated by Prism 4 software as described below.
# as §3
# They are shown together with the 95% confidence intervals (CIs).
# Comparison of EC50 values calculated from the zfGLP-1 cAMP dose-response curve with the EC50 calculated from the cAMP dose-response curves for each of the tested peptides were performed by the F-test from the Prism 4 software which compares the fitted mid-point (EC50) from the data sets of the two dose-response curves under comparison. Conditions of analysis were as follows: (i) in the normalization step y = 0% was set to be 1 (the basal cAMP concentration taken as 1); y = 100% was set to be the largest value in each data set; (ii) constrained curve-fit parameters were set to be equal to 0.00 on the bottom, 100 on top; (iii) EC50 was not constrained; (iv) the selected option in the non-linear regression curve fit was intended on finding out whether the best-fit of a selected parameter (EC50) differs between two sets.
# [3] = target: recombinant glucagon receptor from the frog R. tigrina rugulosa; design: method as in PMID 10471837; settings: cited from earlier work
# recombinant hGCGR = tested on: recombinant hGCGR; design: method as in PMID 7507321; settings: cited from earlier work
# goldfish GCGR = settings: 95% CI: goldfish glucagon 1.3–7 nM; human glucagon 4.7–20 nM; cited from earlier work
# Description: In those studies the EC50 for goldfish glu ...
# [4] = target: glucagon receptor in rat hepatocytes; settings: cited from earlier work
# Experimental: (§4) Moreover, EC50’s for human and zebrafish glucagon obtained in our study were within similar concentration range as the EC50 ‘s determined in experiments with recombinant glucagon receptors from other vertebrate species. Thus, EC50‘s for human glucagon obtained from the cAMP assays performed with the recombinant glucagon receptor from the frog and the recombinant rat glucagon receptor were 0.8 nM [19] and 0.7nM [13], respectively, and are similar to the EC50 value of 1nM determined for the glucagon receptor in rat hepatocytes.
# [5] = target: recombinant glucagon receptor from the frog; settings: cited from earlier work
# Experimental: as §4
# [6] = target: recombinant rat glucagon receptor; settings: cited from earlier work
# Experimental: as §4
# [7] = tested on: hGCGR mutant Cys240 to Tyr240; settings: cited from earlier work
# Description: In the 7TM crystal structure of hGCGR [30], the side chain of Tyr239^3.44 in TM3 interacts with the backbone atoms of Gly359^6.50 (3.5Å) and Leu358^6.49 (2.8Å) in TM6. Tyr239^3.44 is conserved only in hGLP-1R and is substituted with Asn23 ...
# [8] = tested on: hGCGR mutant Glu362 to alanine; settings: reduced surface expression; cited from earlier work
# Description: Our inspection of the 7TM crystal structure of hGCGR [30] also identified a hydrophilic cluster formed by a salt bridge between Lys187^2.60 in TM2 and Glu362^6.53 in TM6, and hydrophilic portions of residues Tyr149^1.47 in TM1, Gln232^2.38, Asp238^2.43, […] in TM2; His361^6.52 in TM6, and Asp385^7.42, Ser389^7.46 Gln392^7.49 in TM7. This TM7-TM6-TM2-TM1 cluster offers a hydrophilic environment embedded deep inside the hydrophobic transmembrane.
# [9] = tested on: zfGPCR (dual zfGLP-1R/GCGR); test: Competitive binding, displacement of 125I-hGLP-1(7–36)amide from recombinant zfGPCR expressed in COS-7 cells; design: species or system zebrafish (Danio rerio); settings: 125I-hGLP-1(7–36)amide tracer, intact COS-7 cells, 16–18 h at 4°C, triplicate wells; NSB with 1 μM peptide; n = 3 hGLP-1, n = 2 zf glucagon, exendin-4, exendin(9–39), n = 1 zfGLP-1. 95% CI: zfGLP-1 1.2–3.6; hGLP-1 0.98–13; zf glucagon 1.4–4.0; exendin-4 0.24–0.92; exendin(9–39) 2.4–14
# Experimental: as §1
# Dose-response curves for zfGLP-1, zfGLP-2 and zebrafish PACAP-38 were obtained from one transfection. […] Lower rounds of transfections were performed in experiments that replicated our published results from the competitive binding experiments with the displacement of ^125I-hGLP-1(7–36)amide binding to zfGPCR [41] and thus represented positive controls for these studies.
# as §2, §3
# They are shown together with the 95% confidence intervals (CIs). […]
# [10] = tested on: hGLP-1R mutant Asn318 to alanine; design: method as in PMID 23479653; settings: Asn318 mutated to alanine, cell surface expression unchanged; cited from earlier work
# GLP-1R = settings: cited from earlier work
# Description: Receptors for GLP-1 (GLP-1R) and glucagon (GCGR) belong to the class B GPCRs that mediate the physiological effects of the peptides within the glucagon-secretin peptide family. Their structures are characterized by large amino terminal extracellular domains which are about 140 amino acids long and an intracellular core consisting of a cytoplasmic domain and seven transmembrane helices (7TMs) connected through three extracellular and three intracellular loops.
# fish hepatocytes = settings: GLP-1 from both human and fish; cited from earlier work
# Description: Our approach to understanding the selectivity of ligand recognition by the receptors for the gluco-regulatory peptides, GLP-1 and glucagon, has been to functionally characterize the ligand selectivity of GCGRs and GLP-1Rs from non-mammalian vertebrates and to compare them to the ligand selectivity of their mammalian counterparts. […] In the abs ...
# [11] = tested on: zfGPCR (dual zfGLP-1R/GCGR); settings: displacement of 125I-hGLP-1(7–36)amide; read-out: IC50 in competitive binding (earlier characterization of the zfGPCR); cited from earlier work
# Experimental: Furthermore, exendin-4, an agonist of hGLP-1R, displaced in competitive binding experiments the binding of ^125I-hGLP-1(7–36) amide to the zebrafish receptor with an IC50 of 0.9 nM, which is within a similar concentration range as the one determined in competitive binding experiments with recombinant hGLP-1R [41] and rGLP-1R [23]. However, subsequent phylo ...
# [12] = tested on: hGLP-1R mutant Ser155 to alanine; settings: Ser152 in hGCGR = Ser155 in hGLP-1R, mutated to alanine; cited from earlier work
# Description: Among those are TM1-TM7 interaction between Ser152^1.50 and Ser 390^7.47 in which Ser152^1.50 in TM1 in hGCGR forms a hydrogen bond with the backbone of Ser390^7.47 in TM7.
# [13] = target: recombinant glucagon receptor from the goldfish C. auratus (gfGCGR); settings: 95% CI: zebrafish glucagon 4.3–18 nM; goldfish glucagon 0.31–1 nM; cited from earlier work
# Description: To be consistent with our initial characterization of this receptor which we referred to as zfGLP-1R [41] and the characterization of the gfGCGR [18] we used only the sequences of zfGLP-1 and zf glucagon used in those studies (shown in Fig 1) and not the second zfGLP-1 and second zebrafish glucagon found in the zebrafish genome.
substance,measurement,setting,value
human glucagon: synthetic human glucagon purchased from Bachem,IC50,[1],67 nM
same,EC50,[2],0.54 nM
same,IC50,[3],12 nM
same,IC50,recombinant hGCGR,5 nM
same,EC50,goldfish GCGR,9.7 nM
same,EC50,[4],1 nM
same,EC50,[5],0.8 nM
same,EC50,[6],0.7 nM
same,effect of mutation on binding to glucagon,[7],did not have an effect
same,effect of mutation on binding of glucagon,[8],decrease in the binding
exendin(9–39),IC50,[9],5.8 nM
same,IC50,[1],4.21 nM
same,behaviour at the zfGPCR,[2]; cAMP assay,behaved as an antagonist
same,stimulatory effect on cAMP levels,"[2]; even at 1μM, n = 4",did not show any stimulatory effects
same,receptor affinity,[10],reduced the receptor’s affinity
GLP-1: refers to both GLP-1(7–37) and GLP-1(7–36)amide,"stimulation of intracellular cAMP, GLP-1 vs exendin-4",GLP-1R,to a similar degree
same,gluconeogenesis,fish hepatocytes,stimulated gluconeogenesis
"hGLP-1: Synthetic hGLP-1(7–36)amide (referred throughout as hGLP-1), purchased from Bachem",IC50,[9],3.6 nM
same,IC50,[1],178 nM
same,EC50,[2],1 nM
same,IC50,[11],0.9 nM
same,receptor affinity,[12],small reduction of receptor affinity
same,receptor affinity,[10],reduced the receptor’s affinity
"goldfish glucagon: glucagon of goldfish, literature comparison (HSEGTFSNDYSKYLETRRAQDFVEWLMNS; Glucagon; UniProt P79695 50-78, looked up)",IC50,[13],0.56 nM
same,EC50,goldfish GCGR,3 nM

# — paper PMC5145181, “Structural Mapping and Functional Characterization of Zebrafish Class B G-Protein Coupled Receptor (GPCR) with Dual Ligand Selectivity towards GLP-1 and Glucagon” (PLoS ONE, 2016)
